For one test, the target named is T1, ICE (IL-1β protease) (Homo sapiens, UniProt P29466).
T1 sequence (P29466 120-297 limits assumed): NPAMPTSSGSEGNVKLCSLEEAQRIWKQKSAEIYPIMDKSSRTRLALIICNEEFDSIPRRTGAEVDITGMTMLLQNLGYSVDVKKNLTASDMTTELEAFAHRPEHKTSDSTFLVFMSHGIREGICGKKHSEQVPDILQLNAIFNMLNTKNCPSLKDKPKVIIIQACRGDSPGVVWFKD
T1 sequence (P29466 317-404 limits assumed): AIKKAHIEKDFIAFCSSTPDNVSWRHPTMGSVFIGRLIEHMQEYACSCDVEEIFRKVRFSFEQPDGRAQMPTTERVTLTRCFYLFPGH
As to the kind of experiment: enzyme assay, second order rates of inactivation of ICE. The class given is biochemical. Conditions: in vitro; read-out: kobs/[I] (IL-1β protease inhibition, second order rate of inactivation). The source says:
Second order rates of inactivation were obtained by using the enzyme assay described in Dolle, R. E.; et al., J. Med Chem. (1994), 37, 563. […] In the case of these reversible inhibitors, the in vitro assay was modified to obtain the reversible Ki * as follows: […]

The subject of test [1] is mature IL-1β release from human monocytes. Description: human monocyte pulse chase assay, inhibition of release of mature IL-1β (called In Vivo Assay). The class given is cell-based. Conditions: human monocytes stimulated with fixed S. aureus. The method, then:
In vivo inhibition (IC50) was determined as follows:
Human monocytes were isolated from heparinized leukopheresis units obtained through Biological Specialty Corporation (Lansdale, Pa.). Monocytes were purified by Ficoll-Hupaque (Pharmacia Fine Chemicals, Piscataway, N.J.) gradient centrifugation and more than 95% pure monocyte populations obtained by centrifugal elutriation. The assay was performed on duplicate samples of freshly isolated human monocytes, cultured in suspension at 37° C. and rotated gently in conical bottom polypropylene tubes (Sardstedt Inc., Princeton, N.J.). Human monocytes at a concentration of 5×10^6 cells/mL were resuspended in 1 mL of RPMI 1640 (a common tissue buffer from M. A. Bioproducts, Walkersville, Md.) containing 1% fetal calf serum (FCS) (HyClone, Logan, Utah) and 50 μg/mL gentamycin (Gibco, Grand Island, N.Y.). The cells were treated either with a compound of the invention (i.e. test compound) or with a non-inhibitor (control compound, typically 0.03% DMSO) for 15 minutes and then activated with 0.01% fixed Staphylococcus aureus (The Enzyme Center, Malden, Mass.) for 1 hour. The cells were then centrifuged and resuspended in 1 mL of cysteine, methionine-free RPMI media containing 1% dialyzed FCS (Hyclone). The cells were pretreated with a test compound or control compound for 15 minutes after which 0.01% fixed S. aureus plus 100 μCi Tran 35-S label (ICN, Irvine, Calif.) was added and the cells incubated at 37° C. for 1 hour. After incubation, cells were centrifuged, washed once in phosphate buffer saline and resuspended in 1 mL RPMI containing 1% fetal calf serum. The cells were again pretreated with a test or control compound for 15 minutes and then 0.01% S. aureus for 2 hours. At the end of the incubation, cells were centrifuged and supernates saved for immunoprecipitation. Cells were washed once in phosphate buffer saline and then lysed in RIPA, a continuous cell media buffer containing 2 mM phenylmethylsulfonyl fluoride, 10 mM iodoacetate, 1 μg/mL pepstatin A, 1 μg/mL leupeptin and 0.5 TIU aprotinin.
For the immunoprecipitations, an equal volume of 1% dry milk in RIPA buffer plus 50 μL of resuspended protein A sepharose CL-4B (Pharmacia, Piscataway, N.Y.) was added to supernates and 1 mL of 4% dry milk containing protein A sepharose CL-4B to cell lysates and samples rotated for 30 minutes at 4° C. Beads were then centrifuged down, samples transferred to fresh tubes and incubated overnight with 40 μg rabbit anti-human IL-1β polyclonal antibody (Genzyme, Cambridge, Mass.). The IL-1β proteins were then precipitated with 70 μL protein A sepharose, resuspended in 60 μL SDS sample buffer and run on 15% SGD-PAGE gels. Autoradiography was performed on dried gels and the amount of radioactivity (counts per minute, cpm) quantitated using a Betascope 603 analyzer.
In the monocyte pulse chase assay, each test parameter was run in duplicate. Data was collected from the Beta Scope using a personal computer, then transferred to the VAX system for calculation of mean cpm and standard deviation of the mean. When test compounds were evaluated, the percent inhibition of release of mature IL-1β was calculated as follows:
100×[1-(cells treated with stimuli+test compound-unstimulated cells)/(cells treated with stimuli+control compound-unstimulated cells)]
These % inhibition values were then used to calculate IC50 value for each compound. Since the human monocyte pulse chase assay uses primary cells from different donors, each test compound was run in 2-3 separate experiments, using monocytes from 2-3 different donors.

Consider 22 compounds from patent US5639745A, “Fused-bicyclic lactams as interleukin-1β converting enzyme inhibitors” (Sanofi, priority 1995, dated 1997).

As to `O=C(O)CCSc1ccc(C(=O)N[C@H]2CCC(=O)N3CCC[C@@H](C(=O)N[C@@H](CC(=O)O)C(=O)COc4cc(C(F)(F)F)nn4-c4ccc(Cl)cc4)N3C2=O)cc1` [Example 9], the kinact/KI at ICE (IL-1β protease) was greater than 10000 M⁻¹ s⁻¹. Besides, in test [1], the IC50 (usually the concentration at which inhibition is half-maximal) is less than 10 µM.
For `O=C(O)C[C@H](NC(=O)[C@@H]1CCCN2C(=O)CC[C@H](NC(=O)OCc3ccccc3)C(=O)N12)C(=O)COC(=O)c1c(Cl)cccc1Cl` [Example 3], the kinact/KI on ICE (IL-1β protease) was greater than 10000 M⁻¹ s⁻¹. The IC50 in test [1] was less than 10 µM.
For `O=C(O)C[C@H](NC(=O)[C@@H]1CCCN2C(=O)CC[C@H](NC(=O)OCc3ccccc3)C(=O)N12)C(=O)COc1cc(C(F)(F)F)nn1-c1ccc(Cl)cn1` [Example 24], the kinact/KI on ICE (IL-1β protease) was greater than 10000 M⁻¹ s⁻¹. In test [1], this compound returned an IC50 of less than 10 µM.
Take `CCOC(=O)n1nnc2cc(C(=O)N[C@H]3CCC(=O)N4CCC[C@@H](C(=O)N[C@@H](CC(=O)O)C(=O)COC(=O)c5c(Cl)cccc5Cl)N4C3=O)ccc21` [Example 18, [9-(N-Carboethoxy-5-bentriazoylamino)octahydro-6,10-dioxo-6H-pyridazino[1,2 a][1,2]diazepine-1-formoyl]-L-aspartic acid 2,6-dichlorobenzoyloxymethyl ketone]: the kinact/KI at ICE (IL-1β protease) was greater than 10000 M⁻¹ s⁻¹. Moreover, the IC50 in test [1] was less than 10 µM.
On to `O=C(O)C[C@H](NC(=O)[C@@H]1CCCN2CCC[C@H](NC(=O)OCc3ccccc3)C(=O)N12)C(=O)COC(=O)c1c(Cl)cccc1Cl` [Example 23], for which the kinact/KI on ICE (IL-1β protease) was greater than 10000 M⁻¹ s⁻¹. This compound also yielded a half-inhibitory concentration (IC50) in test [1] of less than 10 µM.
Take `O=C(O)C[C@H](NC(=O)[C@@H]1CCCN2C(=O)CC[C@H](NC(=O)c3ccccc3)C(=O)N12)C(=O)COc1cc(C(F)(F)F)nn1-c1ccc(Cl)cc1` [Example 7]: the kinact/KI on ICE (IL-1β protease) was greater than 10000 M⁻¹ s⁻¹. In test [1], this compound displayed an IC50 of less than 10 µM.
On to `O=C(O)C[C@H](NC(=O)[C@@H]1CCCN2C(=O)CC[C@H](NC(=O)OCc3ccccc3)C(=O)N12)C(=O)COc1cc(C(F)(F)F)nn1-c1ccc(Cl)cc1` [Example 5], for which the kinact/KI on ICE (IL-1β protease) is greater than 10000 M⁻¹ s⁻¹. The half-maximal inhibitory concentration (IC50) in test [1] was less than 10 µM.
For the compound `O=C(O)C[C@H](NC(=O)[C@@H]1CCCN2C(=O)CC[C@H](NC(=O)c3ccc4[nH]cnc4c3)C(=O)N12)C(=O)COC(=O)c1c(Cl)cccc1Cl` [Example 16, [9-(5-Benzimidazoylamino)octahydro-6,10-dioxo-6H-pyridazino[1,2a][1,2]diazepine-1-formoyl]-L-aspartic acid 2,6-dichlorobenzoyloxymethyl ketone], on ICE (IL-1β protease), the kinact/KI is greater than 10000 M⁻¹ s⁻¹. The compound further returned an IC50 in test [1] of less than 10 µM.
In the case of `O=C(O)CCCc1ccc(C(=O)N[C@H]2CCC(=O)N3CCC[C@@H](C(=O)N[C@@H](CC(=O)O)C(=O)COc4cc(C(F)(F)F)nn4-c4ccc(Cl)cc4)N3C2=O)cc1` [Example 20], at ICE (IL-1β protease), the kinact/KI is greater than 10000 M⁻¹ s⁻¹. For the same compound, the IC50 in test [1] was less than 10 µM.
For the compound `CC(C)COC(=O)N[C@H]1CCC(=O)N2CCC[C@@H](C(=O)N[C@@H](CC(=O)O)C(=O)COc3cc(C(F)(F)F)nn3-c3ccc(Cl)cc3)N2C1=O` [Example 10], the kinact/KI on ICE (IL-1β protease) is greater than 10000 M⁻¹ s⁻¹. Besides, the half-maximal inhibitory concentration (IC50) in test [1] was less than 10 µM.
In the case of `O=C(O)C[C@H](NC(=O)[C@@H]1CCCN2C(=O)CC[C@H](NC(=O)OCc3ccccc3)C(=O)N12)C(=O)COc1cc(C(F)(F)F)nn1-c1ccccc1` [Example 4], the kinact/KI on ICE (IL-1β protease) is greater than 10000 M⁻¹ s⁻¹. Moreover, in test [1], the 50% inhibitory concentration (IC50) is less than 10 µM.
In the case of `O=C(O)C[C@H](NC(=O)[C@@H]1CCCN2C(=O)CC[C@H](NC(=O)OCc3ccccc3)C(=O)N12)C(=O)COc1cc(C(F)(F)F)nn1-c1ccccn1` [Example 6], on ICE (IL-1β protease), the kinact/KI was greater than 10000 M⁻¹ s⁻¹. This compound also had a concentration for half-maximal inhibition (IC50) in test [1] of less than 10 µM.
Turning to `Cc1nccn1Cc1ccc(C(=O)N[C@H]2CCC(=O)N3CCC[C@@H](C(=O)N[C@@H](CC(=O)O)C(=O)COC(=O)c4c(Cl)cccc4Cl)N3C2=O)cc1` [Example 15, [9-(4-(N-(2-Methyl)imidazolylmethyl)benzoylamino)octahydro-6,10-dioxo-6H-pyridazino[1,2a][1,2]diazepine-1-formoyl]-L-aspartic acid 2,6-dichlorobenzoyloxymethyl ketone], the kinact/KI on ICE (IL-1β protease) was greater than 10000 M⁻¹ s⁻¹. The same compound registered an IC50 in test [1] of less than 10 µM.
Regarding `CN(C)Cc1ccc(C(=O)N[C@H]2CCC(=O)N3CCC[C@@H](C(=O)N[C@@H](CC(=O)O)C(=O)COc4cc(C(F)(F)F)nn4-c4ccccn4)N3C2=O)cc1` [Example 25], on ICE (IL-1β protease), the kinact/KI was greater than 10000 M⁻¹ s⁻¹. Besides, the IC50 in test [1] is less than 10 µM.
`CN(C)Cc1ccc(C(=O)N[C@H]2CCC(=O)N3CCC[C@@H](C(=O)N[C@@H](CC(=O)O)C(=O)COc4cc(C(F)(F)F)nn4-c4ccc(Cl)cc4)N3C2=O)cc1` [Example 1]: the kinact/KI on ICE (IL-1β protease) was greater than 10000 M⁻¹ s⁻¹. Moreover, the 50% inhibitory concentration (IC50) in test [1] is less than 10 µM.
On the same counts, the results for `CN(C)Cc1ccc(C(=O)N[C@H]2CCC(=O)N3CCC[C@@H](C(=O)N[C@@H](CC(=O)O)C(=O)COC(=O)c4c(Cl)cccc4Cl)N3C2=O)cc1` [Example 11] are greater than 10000 M⁻¹ s⁻¹ and less than 10 µM.
In the case of `CN1CCN(Cc2ccc(C(=O)N[C@H]3CCC(=O)N4CCC[C@@H](C(=O)N[C@@H](CC(=O)O)C(=O)COC(=O)c5c(Cl)cccc5Cl)N4C3=O)cc2)CC1` [Example 14, [9-(N-[4-(N-Methylpiperazino)methyl]benzoylamino)octahydro-6,10-dioxo-6H-pyridazino [1,2a][1,2]diazepine-1-formoyl]-L-aspartic acid 2,6-dichlorobenzoyloxymethyl ketone], the kinact/KI on ICE (IL-1β protease) was greater than 10000 M⁻¹ s⁻¹. The same compound registered a half-inhibitory concentration (IC50) in test [1] of less than 10 µM.
Consider `O=C(O)CSc1ccc(C(=O)N[C@H]2CCC(=O)N3CCC[C@@H](C(=O)N[C@@H](CC(=O)O)C(=O)COc4cc(C(F)(F)F)nn4-c4ccc(Cl)cc4)N3C2=O)cc1` [Example 8], for which the kinact/KI on ICE (IL-1β protease) is greater than 10000 M⁻¹ s⁻¹. The half-inhibitory concentration (IC50) in test [1] is less than 10 µM.
Consider `CCOC(=O)n1cnc2cc(C(=O)N[C@H]3CCC(=O)N4CCC[C@@H](C(=O)N[C@@H](CC(=O)O)C(=O)COC(=O)c5c(Cl)cccc5Cl)N4C3=O)ccc21` [Example 19, [9-(N-Carboethoxy-5-benzimidazoylamino)octahydro-6,10-dioxo-6H-pyridazino[1 ,2a][1,2]diazepine-1-formoyl]-L-aspartic acid 2,6-dichlorobenzoyloxymethyl ketone], for which, on ICE (IL-1β protease), the kinact/KI was greater than 10000 M⁻¹ s⁻¹. In addition, in test [1], the IC50 is less than 10 µM.
Turning to `O=C(O)C[C@H](NC(=O)[C@@H]1CCCN2C(=O)CC[C@H](NC(=O)c3ccc(CN4CCOCC4)cc3)C(=O)N12)C(=O)COC(=O)c1c(Cl)cccc1Cl` [Example 13, [9-(4-(N-Morpholinomethyl)benzoylamino)octahydro-6,10-dioxo-6H-pyridazino[1 ,2a][1,2]diazepine-1-formoyl]-L-aspartic acid 2,6-dichlorobenzoyloxymethyl ketone], the kinact/KI on ICE (IL-1β protease) is greater than 10000 M⁻¹ s⁻¹. For the same compound, the IC50 in test [1] is less than 10 µM.
With `O=C(O)C[C@H](NC(=O)[C@@H]1CCCN2C(=O)CC[C@H](NC(=O)c3ccc4[nH]nnc4c3)C(=O)N12)C(=O)COC(=O)c1c(Cl)cccc1Cl` [Example 17, [9-(5-Bentriazoylamino)octahydro-6,10-dioxo-6H-pyridazino[1,2a][1,2]diazepine-1-formoyl]-L-aspartic acid 2,6-dichlorobenzoyloxymethyl ketone], the kinact/KI on ICE (IL-1β protease) is greater than 10000 M⁻¹ s⁻¹. Besides, in test [1], the half-inhibitory concentration (IC50) is less than 10 µM.
On to `O=C(O)CCc1ccc(C(=O)N[C@H]2CCC(=O)N3CCC[C@@H](C(=O)N[C@@H](CC(=O)O)C(=O)COc4cc(C(F)(F)F)nn4-c4ccc(Cl)cc4)N3C2=O)cc1` [Example 12], for which the kinact/KI on ICE (IL-1β protease) is greater than 10000 M⁻¹ s⁻¹. In addition, in test [1], the IC50 was less than 10 µM.
